Measured values reported in patent publication US12227488B2, “Small molecule degraders of Helios and methods of use” (DANA-FARBER CANCER INSTITUTE, INC., priority 2018, dated 2025).

How the values were obtained:
CRBN and Helios (IKZF2) = target: T1, CRBN and Helios (IKZF2) (Homo sapiens, UniProt Q96SW2+Q9UKS7); assay: TR-FRET dimerization assay (CRBN-IKZF2 ternary complex formation); format: binding; settings: n=1
T1 construct: His (N); Strep (N)
Experimental: A focused library of imide analogs was synthesized and assessed for their ability to induce dimerization between CRBN and Helios in a time-resolved fluorescence energy transfer (TR-FRET) assay (FIG. 1A).
Prior to TR-FRET measurements being conducted, the reactions were incubated for 15 min at rt. […] The TR-FRET signal of each data point was extracted by calculating the 520/490 nm ratios. Data from single measurements (n=1), each calculated as an average of at least three technical replicates per well per experiment are presented in Table 1.
BODIPY-labeled CRBN in complex with Damage Specific DNA Binding Protein 1 (DDB1) harboring an internal deletion of the flexible BPB propeller (DDB1AB-CRBN) and in vitro biotinylated IKZF2 were treated with increasing concentrations of the indicated compounds in the presence of tracer amounts of Terbium-Streptavidin (Tb-SA). Compound-induced recruitment of IKZF2 to CRBN was quantified following the 520/490 TR-FRET ratio using a PHERAstar® plate reader (BMG) utilizing two synchronized PMTs to reduce background.

IKZF2 = assay: Cellular degradation assay, eGFP-IKZF2Δ fusion with mCherry reporter in Flp-In 293 cells; format: cell-based; settings: for IKZF2 GFP/RFP Relative Abundance: 5 h incubation, n=1
Experimental: (§1) IKZF1Δ, IKZF2Δ, GSPT1 and SALL4 ZnF1-2 were subcloned into mammalian pcDNA5/FRT Vector (Ampicillin and Hygromycin B resistant) modified to contain MCS-eGFP-P2A-mCherry. […] Following 2-3 passage cycle, FACS (FACSAria™ II, BD) was used to enrich for cells expressing eGFP and mCherry. Cells stably expressing the IKZF1Δ, IKZF2Δ, GSPT1 or SALL4 Znf1-2 GFP fusions with mCherry reporter were seeded at 30-50% confluency in 384-well plates with 50 μL FluoroBrite™ DMEM media (Thermo Fisher Scientific, A18967) containing 10% FBS per well a day before compound treatment. Compound titrations were dispensed using a D300e Digital Dispenser (HP), normalized to 0.5% DMSO, and incubated with cells for 5 hours.
(§2) The resulting images were analyzed using CellProfiler™. A series of image analysis steps (‘image analysis pipeline’) was constructed. First, the red and green channels were aligned and cropped to target the middle of each well (to avoid analysis of heavily clumped cells at the edges), and a background illumination function was calculated for both red and green channels of each well individually and subtracted to correct for illumination variations across the 384-well plate from various sources of error. An additional step was then applied to the green channel to suppress the analysis of large auto fluorescent artifacts and enhance the analysis of cell specific fluorescence by way of selecting for objects under a given size, 30 A.U., and with a given shape, speckles. mCherry-positive cells were then identified in the red channel filtering for objects between 8-60 pixels in diameter and using intensity to distinguish between clumped objects. The green channel was then segmented into GFP positive and negative areas and objects were labeled as GFP positive if at least 40% of it overlapped with a GFP positive area. The fraction of GFP-positive cells/mCherry-positive cells in each well was then calculated, and the green and red images were rescaled for visualization.
(§3) The degradation assay was performed as described above. […] Degradation was measured after 5 h of compound treatment and the concentrations that lead to half degradation at 5 h (DC50,5 h) were calculated using the nonlinear fit variable slope model (GraphPad Software).

IKZF1 = target: T2, IKZF1 (Homo sapiens, UniProt Q13422); assay: Cellular degradation assay, eGFP-IKZF1Δ fusion with mCherry reporter in Flp-In 293 cells; format: cell-based; settings: for IKZF1 GFP/RFP Relative Abundance: 5 h incubation, n=1
T2 construct: expressed in transfected cells; host or cells: Flp-In 293
T2 sequence (Q13422 83-213 isoform Q13422-7 limits assumed): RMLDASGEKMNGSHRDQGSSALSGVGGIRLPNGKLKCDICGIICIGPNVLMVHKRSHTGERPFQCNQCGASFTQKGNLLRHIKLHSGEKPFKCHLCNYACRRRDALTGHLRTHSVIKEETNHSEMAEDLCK
T2 sequence (Q96SW2 whole entry partner, the tested form may be a part): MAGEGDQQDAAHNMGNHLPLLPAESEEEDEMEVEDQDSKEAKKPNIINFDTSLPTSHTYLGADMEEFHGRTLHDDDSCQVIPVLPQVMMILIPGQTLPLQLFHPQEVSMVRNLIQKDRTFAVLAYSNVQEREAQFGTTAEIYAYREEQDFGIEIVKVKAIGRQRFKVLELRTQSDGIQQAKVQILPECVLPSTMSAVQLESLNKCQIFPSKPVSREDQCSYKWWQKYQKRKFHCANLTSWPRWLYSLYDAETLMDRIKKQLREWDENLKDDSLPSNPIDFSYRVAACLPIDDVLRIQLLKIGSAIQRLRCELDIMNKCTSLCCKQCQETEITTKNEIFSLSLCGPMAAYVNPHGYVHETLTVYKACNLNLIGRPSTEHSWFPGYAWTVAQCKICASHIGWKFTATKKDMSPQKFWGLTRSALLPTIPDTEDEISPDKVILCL
T2 sequence (Q16531 2-1140 partner limits assumed): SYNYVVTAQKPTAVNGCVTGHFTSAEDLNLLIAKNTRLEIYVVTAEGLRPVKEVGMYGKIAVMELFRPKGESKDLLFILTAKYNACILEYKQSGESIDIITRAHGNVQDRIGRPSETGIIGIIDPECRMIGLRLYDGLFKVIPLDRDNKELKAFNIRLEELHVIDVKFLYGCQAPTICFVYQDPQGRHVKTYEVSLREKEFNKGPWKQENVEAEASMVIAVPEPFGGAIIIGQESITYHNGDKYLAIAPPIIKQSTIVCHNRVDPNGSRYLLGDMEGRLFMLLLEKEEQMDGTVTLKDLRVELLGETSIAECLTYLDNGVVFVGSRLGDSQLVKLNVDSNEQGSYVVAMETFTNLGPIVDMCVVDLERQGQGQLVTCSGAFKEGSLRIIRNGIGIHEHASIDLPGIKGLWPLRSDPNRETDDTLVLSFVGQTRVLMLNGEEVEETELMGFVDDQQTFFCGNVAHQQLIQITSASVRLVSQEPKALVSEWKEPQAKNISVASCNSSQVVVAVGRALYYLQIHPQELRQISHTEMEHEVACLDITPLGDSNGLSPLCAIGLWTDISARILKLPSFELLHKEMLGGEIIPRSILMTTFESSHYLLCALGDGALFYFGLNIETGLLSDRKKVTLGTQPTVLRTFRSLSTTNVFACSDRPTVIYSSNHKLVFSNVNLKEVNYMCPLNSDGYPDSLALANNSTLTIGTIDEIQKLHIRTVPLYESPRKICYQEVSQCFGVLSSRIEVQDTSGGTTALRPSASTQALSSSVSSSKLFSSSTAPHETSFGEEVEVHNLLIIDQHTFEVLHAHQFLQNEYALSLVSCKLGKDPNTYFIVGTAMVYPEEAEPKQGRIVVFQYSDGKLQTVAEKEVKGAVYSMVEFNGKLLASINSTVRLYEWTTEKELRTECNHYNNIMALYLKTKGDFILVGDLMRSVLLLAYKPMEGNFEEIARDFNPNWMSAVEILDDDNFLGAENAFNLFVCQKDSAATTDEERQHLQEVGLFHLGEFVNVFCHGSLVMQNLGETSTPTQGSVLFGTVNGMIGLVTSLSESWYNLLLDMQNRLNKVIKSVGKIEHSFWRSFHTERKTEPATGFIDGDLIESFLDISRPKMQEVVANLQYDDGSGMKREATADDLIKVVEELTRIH
Experimental: as §1, §2, §3

GSPT1 = GSPT1 (Homo sapiens, UniProt P15170+Q96SW2); assay: Cellular degradation assay, eGFP-GSPT1 fusion with mCherry reporter in Flp-In 293 cells; format: cell-based; parameters: expressed in transfected cells; host or cells: Flp-In 293; settings: half degradation at 5 h (DC50,5 h); triplicate, 11 point dose response
GSPT1, sequence (P15170 whole entry, the tested form may be a part): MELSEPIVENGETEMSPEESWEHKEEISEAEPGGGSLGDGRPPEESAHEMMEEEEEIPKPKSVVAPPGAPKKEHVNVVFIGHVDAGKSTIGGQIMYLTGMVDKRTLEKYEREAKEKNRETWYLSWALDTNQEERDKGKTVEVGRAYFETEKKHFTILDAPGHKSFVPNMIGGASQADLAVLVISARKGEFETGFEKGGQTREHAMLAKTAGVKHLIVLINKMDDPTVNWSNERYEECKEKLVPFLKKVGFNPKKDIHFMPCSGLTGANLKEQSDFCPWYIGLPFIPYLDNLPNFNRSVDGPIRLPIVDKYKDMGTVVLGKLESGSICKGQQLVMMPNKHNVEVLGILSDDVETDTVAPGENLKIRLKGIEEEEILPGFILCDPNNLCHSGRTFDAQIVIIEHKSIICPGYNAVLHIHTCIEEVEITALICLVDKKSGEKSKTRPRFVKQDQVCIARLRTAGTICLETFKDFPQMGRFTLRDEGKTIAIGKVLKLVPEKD
GSPT1, sequence (Q96SW2 whole entry, the tested form may be a part): as the sequence (Q96SW2 whole entry partner, the tested form may be a part) above
GSPT1, sequence (Q16531 whole entry partner, the tested form may be a part): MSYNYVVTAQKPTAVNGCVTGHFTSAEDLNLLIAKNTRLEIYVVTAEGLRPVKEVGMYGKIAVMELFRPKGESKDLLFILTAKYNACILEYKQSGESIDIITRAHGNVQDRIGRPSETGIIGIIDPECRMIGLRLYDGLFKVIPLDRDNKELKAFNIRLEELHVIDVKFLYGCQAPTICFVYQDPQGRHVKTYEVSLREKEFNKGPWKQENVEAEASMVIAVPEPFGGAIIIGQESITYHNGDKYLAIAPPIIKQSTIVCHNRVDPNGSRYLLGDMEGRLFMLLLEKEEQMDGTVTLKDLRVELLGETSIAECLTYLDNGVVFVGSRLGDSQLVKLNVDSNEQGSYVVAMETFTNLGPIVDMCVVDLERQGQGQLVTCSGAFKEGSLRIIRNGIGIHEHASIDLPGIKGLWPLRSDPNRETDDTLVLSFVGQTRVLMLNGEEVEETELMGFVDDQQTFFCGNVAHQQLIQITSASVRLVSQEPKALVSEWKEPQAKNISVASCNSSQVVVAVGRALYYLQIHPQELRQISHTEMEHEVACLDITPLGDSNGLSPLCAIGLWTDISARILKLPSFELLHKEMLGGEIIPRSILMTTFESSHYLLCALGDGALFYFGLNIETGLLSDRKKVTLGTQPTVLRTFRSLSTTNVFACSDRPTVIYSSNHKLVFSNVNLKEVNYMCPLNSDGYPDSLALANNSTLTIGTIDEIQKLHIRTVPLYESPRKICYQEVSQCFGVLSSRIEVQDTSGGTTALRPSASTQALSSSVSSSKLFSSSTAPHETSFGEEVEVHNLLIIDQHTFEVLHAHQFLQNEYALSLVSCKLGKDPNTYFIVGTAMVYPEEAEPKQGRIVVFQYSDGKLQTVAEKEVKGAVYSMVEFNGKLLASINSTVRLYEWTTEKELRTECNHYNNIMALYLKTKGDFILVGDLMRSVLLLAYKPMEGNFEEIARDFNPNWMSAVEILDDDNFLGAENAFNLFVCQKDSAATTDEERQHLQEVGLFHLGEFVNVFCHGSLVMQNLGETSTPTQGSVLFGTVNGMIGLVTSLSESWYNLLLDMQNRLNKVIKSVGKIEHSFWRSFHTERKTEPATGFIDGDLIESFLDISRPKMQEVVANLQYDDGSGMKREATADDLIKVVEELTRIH
Experimental: as §1, §2, §3

[1] = compound concentration 6.6667E−05
[2] = compound concentration 6.6667E−06
[3] = compound concentration 6.6667E−07 (667 nM)
[4] = compound concentration 2.00E−05
[5] = compound concentration 2.00E−06
[6] = compound concentration 2.00E−07
[7] = half degradation at 5 h (DC50,5 h), triplicate, 11 point dose response

T1 sequence (Q96SW2 whole entry): as the sequence (Q96SW2 whole entry partner, the tested form may be a part) above
T1 sequence (Q9UKS7 whole entry): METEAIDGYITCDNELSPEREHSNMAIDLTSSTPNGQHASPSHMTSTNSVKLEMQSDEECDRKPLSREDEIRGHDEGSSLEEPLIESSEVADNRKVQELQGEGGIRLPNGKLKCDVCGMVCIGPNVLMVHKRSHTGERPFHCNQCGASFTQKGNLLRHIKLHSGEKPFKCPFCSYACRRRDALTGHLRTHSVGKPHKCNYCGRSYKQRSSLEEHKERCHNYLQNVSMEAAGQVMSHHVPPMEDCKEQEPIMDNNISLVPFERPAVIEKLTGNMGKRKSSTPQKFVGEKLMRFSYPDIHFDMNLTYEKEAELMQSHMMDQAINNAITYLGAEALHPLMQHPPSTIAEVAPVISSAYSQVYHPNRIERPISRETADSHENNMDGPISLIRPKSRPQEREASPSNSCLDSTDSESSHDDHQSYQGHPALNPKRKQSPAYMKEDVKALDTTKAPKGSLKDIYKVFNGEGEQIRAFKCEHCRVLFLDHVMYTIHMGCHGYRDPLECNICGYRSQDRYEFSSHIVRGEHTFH

Structure (SMILES)	TR-FRET-IKZF2 (Normalized to CC-885) (CRBN and Helios (IKZF2); [1])	TR-FRET-IKZF2 (Normalized to CC-885) (CRBN and Helios (IKZF2); [2])	TR-FRET-IKZF2 (Normalized to CC-885) (CRBN and Helios (IKZF2); [3])	IKZF2 GFP/RFP Relative Abundance (IKZF2; [4])	IKZF2 GFP/RFP Relative Abundance (IKZF2; [5])	IKZF2 GFP/RFP Relative Abundance (IKZF2; [6])	IKZF1 GFP/RFP Relative Abundance (IKZF1; [4])	IKZF1 GFP/RFP Relative Abundance (IKZF1; [5])	IKZF1 GFP/RFP Relative Abundance (IKZF1; [6])	DC50 (IKZF2; [7]) [nM]	potency of IKZF1 degradation, in words (IKZF1; Table 3 summary)	DC50 (IKZF1; [7]) [nM]	DC50 (GSPT1) [nM]
Cc1ccc(NC(=O)OCCc2cccc(NC3=CC(=O)N(C4CCC(=O)NC4=O)C3=O)c2)cc1Cl (stereo not shown) [Compound 110, 3-((1-(2,6-dioxopiperidin-3-yl)-2,5-dioxo-2,5-dihydro-1H-pyrrol-3-yl)amino)phenethyl (3-chloro-4-methylphenyl)carbamate]	1.017	1.086	0.853	0.048	0.048	0.038	0.096	0.066	0.086				
Cc1ccc(NC(=O)NCc2cc(NC(=O)N(C)C)cc(NC3=CC(=O)N(C4CCC(=O)NC4=O)C3=O)c2)cc1Cl (stereo not shown) [Compound 112, 3-(3-((3-(3-chloro-4-methylphenyl)ureido)methyl)-5-((1-(2,6-dioxopiperidin-3-yl)-2,5-dioxo-2,5-dihydro-1H-pyrrol-3-yl)amino)phenyl)-1,1-dimethylurea]	0.048	0.035	0.035	1.081	1.047	1.034	0.726	0.949	1.002				
O=C1CCC(N2C(=O)C=C(Nc3cccc(CNC(=O)Nc4ccccc4)c3)C2=O)C(=O)N1 (stereo not shown) [Compound 119, 1-(3-((1-(2,6-dioxopiperidin-3-yl)-2,5-dioxo-2,5-dihydro-1H-pyrrol-3-yl)amino)benzyl)-3-phenylurea]	0.817	0.671	0.629	0.392	0.516	0.544	0.055	0.079	0.101				
Cc1cc(CNC(=O)NC(C)c2cccc(NC3=CC(=O)N(C4CCC(=O)NC4=O)C3=O)c2)ccc1Cl (stereo not shown) [Compound 120, 1-(4-chloro-3-methylbenzyl)-3-(1-(3-((1-(2,6-dioxopiperidin-3-yl)-2,5-dioxo-2,5-dihydro-1H-pyrrol-3-yl)amino)phenyl)ethyl)urea]	1.263	1.011	0.860	0.077	0.117	0.157	0.094	0.110	0.092				
Cc1ccc(CNC(=O)CCc2cccc(NC3=CC(=O)N(C4CCC(=O)NC4=O)C3=O)c2)cc1Cl (stereo not shown) [Compound 121, N-(3-chloro-4-methylbenzyl)-3-(3-((1-(2,6-dioxopiperidin-3-yl)-2,5-dioxo-2,5-dihydro-1H-pyrrol-3-yl)amino)phenyl)propanamide]	1.521	1.376	1.357	0.071	0.087	0.051	0.125	0.093	0.120				
Cc1ccc(CNC(=O)c2cccc(NC3=CC(=O)N(C4CCC(=O)NC4=O)C3=O)c2)cc1Cl (stereo not shown) [Compound 122, N-(3-chloro-4-methylbenzyl)-3-((1-(2,6-dioxopiperidin-3-yl)-2,5-dioxo-2,5-dihydro-1H-pyrrol-3-yl)amino)benzamide]	0.715	0.628	0.469	0.738	0.789	0.833	0.076	0.088	0.096				
Cc1ccc(CNC(=O)Cc2cccc(NC3=CC(=O)N(C4CCC(=O)NC4=O)C3=O)c2)cc1Cl (stereo not shown) [Compound 123, N-(3-chloro-4-methylbenzyl)-2-(3-((1-(2,6-dioxopiperidin-3-yl)-2,5-dioxo-2,5-dihydro-1H-pyrrol-3-yl)amino)phenyl)acetamide]	1.234	1.087	0.960	0.065	0.093	0.078	0.083	0.057	0.092				
Cc1ccc(NC(=O)Nc2cccc3c(NC4=CC(=O)N(C5CCC(=O)NC5=O)C4=O)cccc23)cc1Cl (stereo not shown) [Compound 124, 1-(3-chloro-4-methylphenyl)-3-(5-((1-(2,6-dioxopiperidin-3-yl)-2,5-dioxo-2,5-dihydro-1H-pyrrol-3-yl)amino)naphthalen-1-yl)urea]	0.159	0.130	0.077	0.829	1.015	0.985	0.689	0.978	1.005				
Cc1ccc(NC(=O)COc2cccc(NC3=CC(=O)N(C4CCC(=O)NC4=O)C3=O)c2)cc1Cl (stereo not shown) [Compound 125, N-(3-chloro-4-methylphenyl)-2-(3-((1-(2,6-dioxopiperidin-3-yl)-2,5-dioxo-2,5-dihydro-1H-pyrrol-3-yl)amino)phenoxy)acetamide]										24	most potent against IKZF1	1.7	> 1000
Cc1ccc(NC(=O)NCCc2cccc(NC3=CC(=O)N(C4CCC(=O)NC4=O)C3=O)c2)cc1C(F)(F)F (stereo not shown) [Compound 126, 1-(3-((1-(2,6-dioxopiperidin-3-yl)-2,5-dioxo-2,5-dihydro-1H-pyrrol-3-yl)amino)phenethyl)-3-(4-methyl-3-(trifluoromethyl)phenyl)urea]	1.762	1.603	1.420	0.059	0.033	0.047	0.177	0.072	0.100				
Cc1ccc(N(C)C(=O)CCc2cccc(NC3=CC(=O)N(C4CCC(=O)NC4=O)C3=O)c2)cc1Cl (stereo not shown) [Compound 127, N-(3-chloro-4-methylphenyl)-3-(3-((1-(2,6-dioxopiperidin-3-yl)-2,5-dioxo-2,5-dihydro-1H-pyrrol-3-yl)amino)phenyl)-N-methylpropanamide]	1.390	1.362	1.195	0.266	0.047	0.060	0.313	0.079	0.079				
